Reference: patent US20170283850A1, “METHODS OF DETECTING ADENOSINE DEAMINASE DEFICIENCY” (CHILDREN'S HOSPITAL OF EASTERN ONTARIO, priority 2014, published 2017)

Key:
[1] = Stability of purine metabolites in DBS on storage; format: physicochemical; details: 5 and 25 μmol/L in DBS, stored 4.5 weeks at −20° C., 23° C. (ambient) and 30° C.
Description: Stability of purine metabolites in DBS was assessed by storing spiked samples (5 and 25 μmol/L) at various temperatures (ambient, −20° C. and 30° C.). Analysis was carried out as described over a period of […].
Analysis of DBS specimens containing Ado, dAdo, Gua and dGua at 5 and 25 μmol/L stored for a period of 4.5 weeks at −20° C., 23° C.

[2] = Loss of standard purines added to whole blood (residual ADA activity); format: in vitro ADME; details: whole blood without EHNA
Description: DBS calibrators could not be prepared in this work due to residual ADA activity that persisted after traditional enzyme deactivation treatments such as freeze-thawing or heating whole blood at 45° C. for 24 hours. EHNA, a specific ADA inhibitor, was added to whole blood to prevent the deamination of Ado and dAdo to inosine and deoxyinosine, respectively. Purine metabolites were extracted from 3.2 mm dried calibrators or DBS specimens using an aqueous solution of 70% methanol (v/v) containing isotope labeled IS. This solution was added directly into a 96-well plate containing samples and incubated at 37° C. with shaking (650 rpm). The extraction yield reached its maximum at 15 minutes or more. The following experiments therefore were performed at 37° C. for 15 min. Purine metabolites were stable for at least 24 h when stored in a tightly sealed vial at 8° C.
SCID newborn screening began in the United States following the recent addition of this condition to the uniform panel as recommended by the US Department of Health and Human Services. In Canada, Ontario was the first jurisdiction to screen for SCID, which began in August, 2013. TREC analysis is the primary screening method and can be achieved by real-time PCR using neonatal DBS, the sample of choice for newborn screening. However, TREC analysis is inadequate to provide additional information regarding the etiology of SCID. […]

ADA = ADA (Homo sapiens, UniProt P00813); details: DBS eluate, substrate 1.0 μmol/L, 37° C., 30 minutes or more
Sequence of ADA (P00813 whole entry): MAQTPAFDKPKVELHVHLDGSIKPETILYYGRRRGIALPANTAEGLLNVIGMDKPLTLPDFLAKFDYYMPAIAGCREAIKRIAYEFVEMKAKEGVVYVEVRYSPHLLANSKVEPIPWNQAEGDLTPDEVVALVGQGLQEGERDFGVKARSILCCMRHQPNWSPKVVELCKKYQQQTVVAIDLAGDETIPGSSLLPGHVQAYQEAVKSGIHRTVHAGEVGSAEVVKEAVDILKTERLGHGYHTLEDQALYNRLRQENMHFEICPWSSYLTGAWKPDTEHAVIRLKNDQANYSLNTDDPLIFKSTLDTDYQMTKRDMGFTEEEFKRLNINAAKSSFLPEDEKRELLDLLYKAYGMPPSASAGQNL
Description: A 3.2 mm DBS sample was punched into the designated well of a 96 multi-well filter plate (Pall Corp, Ann Arbor, Mich., USA) and eluted using 120 μl of water by shaking at 650 rpm (24° C. for 30 min). After filtration under vacuum, two 40 μl portions of the eluate were dispensed into two 2 ml microtubes (Axygen, Union City, Calif., USA) and labeled Test and Blank. To the tube labeled Test, 10 μl of 10 μmol/l of EHNA in water were added whereas water (10 μl) was added to Blank tubes. The tubes were vortexed for 10 sec and allowed to sit at room temperature for 5 min. To each tube, 50 μl 2 mmol/L ammonium acetate containing 1 μmol/L of ^13C10, ^15N5 Ado and ^15N5 dAdo were added as ADA substrates. The mixture was incubated at 37° C. with shaking (20 rpm). After 30 minutes, the enzymatic reaction was stopped by adding 400 μl of acetonitrile containing ^13C5 Ado (0.125 μmol/L) and the mixture was vortexed for 30 sec. […] The enzyme activity expressed as pmol of residual substrate per DBS was measured by calculating the difference of ^13C10, ^15N5 Ado and ^15N5 dAdo in Test and Blank after the enzymatic reaction.
ADA activity assay conditions were determined by monitoring the enzyme reaction (up to 60 min), substrate concentration (1-10 μmol/L), EHNA concentration (2.5-160 NM) and incubation temperature (30-60° C.).

| Compound | Stability in DBS specimens [1] | Stability on adding standard purines to whole blood [2] | Optimum EHNA concentration for ADA activity measurements (ADA) |
| --- | --- | --- | --- |
| Nc1nc2c(ncn2[C@@H]2O[C@H](CO)[C@@H](O)[C@H]2O)c(=O)[nH]1 [Gua, guanosine] | stable |  |  |
| erythro-9-(2-hydroxy-3-nonyl) adenine [EHNA] |  |  | ≥ 10 µM |
| Nc1ncnc2c1ncn2[C@@H]1O[C@H](CO)[C@@H](O)[C@H]1O [Ado, adenosine] | stable | immediate loss |  |

More lines, now with the values ahead:

| Stability in DBS specimens [1] | Stability on adding standard purines to whole blood [2] | Optimum EHNA concentration for ADA activity measurements (ADA) | Compound |
| --- | --- | --- | --- |
| stable | immediate loss |  | Nc1ncnc2c1ncn2[C@H]1C[C@H](O)[C@@H](CO)O1 [dAdo, deoxyadenosine] |
| stable |  |  | Nc1nc2c(ncn2[C@H]2C[C@H](O)[C@@H](CO)O2)c(=O)[nH]1 [dGua, deoxyguanosine] |
